Source: patent publication US12285401B2, “Pharmaceutical composition comprising trimebutine or pharmaceutically acceptable salt thereof as an active ingredient for prevention or treatment of cancer” (DAEGU-GYEONGBUK MEDICAL INNOVATION FOUNDATION, priority 2019, dated 2025)
Values belong to the molecule of their own block, whether it stands above or below them.

Experiments:
[1] = test system: A2780-SP cells (ovarian cancer stem cells); test: Cell viability assay (Cell-titer Glo), A2780-SP sphere cell viability; assay type: cell-based; details: for GI50: A2780-SP ovarian cancer stem cells, 1,500 cells per well, Cell-titer Glo; for viability of A2780-SP cells (ovarian cancer stem cells), result in words: 1500 cells, 7 days, Cell titer Glo
[2] = test system: A2780 cells (ovarian cancer cells); test: Cell viability assay (Cell-titer Glo), A2780 cell viability; assay type: cell-based; details: 3 days
BKCa channel = target: T1, BKCa channel (Homo sapiens, UniProt Q12791); test: Whole cell patch clamp recording, BKCa channel current in A2780-SP cells; assay type: cell-based; details: 10 μM, 5 minutes
T1 construct: K^+ current of the BK channel was measured by increasing the membrane voltage by 10 mV starting at −80 mV; endogenous in cells; host or cells: A2780-SP (ovarian cancer stem cells)

L-type Ca channel = test: Whole cell patch clamp recording, Ca channel current in A2780-SP cells; assay type: cell-based; details: 10 μM, 5 minutes
Na channel = test: Whole cell patch clamp recording, Na channel current in A2780-SP cells; assay type: cell-based; details: 10 μM, 5 minutes
ALDH, OCT4 and SOX2 = test: Western blotting of markers related to cancer stemness in A2780-SP cells; assay type: cell-based; details: 1 μM or 10 μM
Description: A2780-SP cells (ovarian cancer stem cells) were plated in an ultra-low attachment 6-well plate (Corning) at the density of 4×10^5 viable cells per well and cultured in a cancer stem cell medium. On the next day of culture, the medium was replaced with NBM (Neuro Basal Medium), and the cells were cultured for 16 hours in starvation. Then, the cells were treated with the compound of Example 1 at the concentration of 1 μM or 10 μM for 1 hour. The medium was replaced with a cancer stem cell medium containing the compound, and the cells were collected and cultured for an additional 30 minutes before being lysed in RiPA buffer. The extracted protein was separated by SDS-PAGE gel and transferred to a PVDF membrane for Western blotting. […]
Signals were developed on an enhanced chemiluminescence HRP substrate (Bio-Rad) and detected using LAS-3000 mini (Fuji film). The signals were quantified using Image J software (NIH Image).
In order to confirm the anticancer effect through the changes in the expressions of the markers related to sternness and the proteins related to survival and proliferation of cancer stem cells according to the treatment of the pharmaceutical composition containing trimebutine of the present invention, the expression levels of various factors were analyzed by Western blotting. […]

β-catenin = β-catenin S552 phosphorylation and translocation experiments in A2780-SP cells; assay type: cell-based; details: 1 μM or 10 μM, 24 hours
Description: A2780-SP cells (ovarian cancer stem cells) were plated in an ultra-low attachment round bottom 6-well plate (Corning) at the density of 4×10^5 viable cells per well and cultured in a cancer stem cell medium (CM). The cancer stem cell medium is composed of a neurobasal medium supplemented with 20 ng/ml of bFGF, 10 ng/ml of EGF, 2.5 ng/ml of amphotericin B, HEPES, Glutamax and B27. On the next day of culture, the cells were treated with the compound at the concentration of 1 μM or 10 μM for 24 hours. The control group was treated in the same manner as above for 24 hours with a neurobasal medium (NBM) and a cancer stem cell medium (CM) containing DMSO.
To measure the degree of phosphorylation of β-catenin S552, 100 μl of RIPA buffer (containing 1× protease inhibitor and phosphatase inhibitor) was added to the prepared cells, and the cells were disrupted by shaking once every 5 minutes for a total of 15 minutes. The disrupted cells were centrifuged at 13,000 rpm for 15 minutes to collect only the supernatant protein, and the obtained protein was quantified using a BCA protein quantification kit (Pierece, MA, USA), and a total of 15 μg of the protein was used for Western blotting. NE-PER Nuclear and Cytoplasmic Extraction Reagents (Thermoscientific, #78833) were used to separate cytoplasmic and nuclear proteins. […]

A2780-SP xenograft = A2780-SP xenograft model, tumor formation; assay type: in vivo; details: 3 mg/kg, intraperitoneal, nude mouse
Description: (§1) In order to confirm the inhibitory effect of the pharmaceutical composition of Examples of the present invention in the ovarian cancer stem cell tumor model, each nude mouse was subcutaneously inoculated with 2×10^6 A2780-SP (ovarian cancer stem cell line) cells. After the implantation, the size of tumor formation was measured using a caliper. When the tumor volume became 100 mm^3 or more, the experimental group was divided into the control group (vehicle) and the pharmaceutical composition of Examples of the present invention treated group (3 mg/kg of trimebutine) and the drug was administered to confirm the effect of the drug. The drug was administered […] through intraperitoneal administration, and the size of the tumor and the weight of the mouse were measured at intervals of 3 to 4 days. Then, all mice were euthanized on the day of the end of the experiment, and finally the size of the tumor and the weight were measured.
(§2) In order to confirm the ovarian cancer treatment effect of the pharmaceutical composition containing trimebutine of the present invention in vivo, an animal model experiment was performed. The specific experimental method is the same as the animal experiment method described in Experimental Protocol 5.

[3] = A2780-SP xenograft model, change in body weight; assay type: in vivo; details: 3 mg/kg, intraperitoneal, nude mouse
Description: as §1, §2

T1 sequence (Q12791 whole entry): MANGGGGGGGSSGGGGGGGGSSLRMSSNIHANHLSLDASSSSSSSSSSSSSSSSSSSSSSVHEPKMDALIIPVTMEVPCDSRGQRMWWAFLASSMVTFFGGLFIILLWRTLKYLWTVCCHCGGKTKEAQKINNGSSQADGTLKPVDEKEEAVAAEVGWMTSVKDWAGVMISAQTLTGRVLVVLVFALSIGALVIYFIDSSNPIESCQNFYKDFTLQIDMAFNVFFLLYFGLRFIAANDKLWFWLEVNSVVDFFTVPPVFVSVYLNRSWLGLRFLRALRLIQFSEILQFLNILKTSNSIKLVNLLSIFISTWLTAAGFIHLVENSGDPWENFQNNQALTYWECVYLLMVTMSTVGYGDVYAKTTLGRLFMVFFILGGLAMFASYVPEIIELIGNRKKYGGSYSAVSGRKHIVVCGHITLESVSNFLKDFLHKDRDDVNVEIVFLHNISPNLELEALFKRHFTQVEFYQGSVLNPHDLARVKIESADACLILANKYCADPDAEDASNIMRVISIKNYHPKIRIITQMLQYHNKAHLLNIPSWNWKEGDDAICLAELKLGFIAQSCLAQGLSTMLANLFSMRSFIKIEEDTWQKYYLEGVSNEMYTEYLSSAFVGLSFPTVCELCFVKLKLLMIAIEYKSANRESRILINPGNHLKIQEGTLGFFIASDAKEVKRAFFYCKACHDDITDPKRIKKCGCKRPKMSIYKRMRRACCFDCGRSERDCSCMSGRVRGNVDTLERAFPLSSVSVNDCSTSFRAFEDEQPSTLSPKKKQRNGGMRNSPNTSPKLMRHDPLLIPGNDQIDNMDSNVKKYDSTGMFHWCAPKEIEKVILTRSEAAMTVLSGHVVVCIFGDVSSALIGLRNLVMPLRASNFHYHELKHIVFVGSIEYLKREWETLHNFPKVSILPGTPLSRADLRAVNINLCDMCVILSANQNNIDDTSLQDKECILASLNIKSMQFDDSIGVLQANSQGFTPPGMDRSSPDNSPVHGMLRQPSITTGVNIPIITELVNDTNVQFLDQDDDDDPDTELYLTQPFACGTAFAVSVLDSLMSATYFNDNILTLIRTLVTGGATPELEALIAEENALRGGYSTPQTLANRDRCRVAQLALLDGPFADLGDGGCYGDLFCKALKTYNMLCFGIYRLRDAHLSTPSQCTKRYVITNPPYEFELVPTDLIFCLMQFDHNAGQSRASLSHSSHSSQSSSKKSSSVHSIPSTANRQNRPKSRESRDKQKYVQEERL

GI50 [1]: 2640 nM
Compound: COC(=O)C1=C(C)NC(C)=C(C(=O)O[C@@H]2CCCN(Cc3ccccc3)C2)[C@@H]1c1cccc([N+](=O)[O-])c1 (racemic) [Comparative Example 1 (benidipine), Benidipine]

GI50 [1]: 2900 nM
Compound: CCOC(=O)C1=C(C)NC(C)=C(C(=O)OCC)C1c1ccccc1/C=C/C(=O)OC(C)(C)C [Comparative Example 1 (lacidipine), Lacidipine]

The remaining lines, values behind:

Compound: COc1ccc(CN2CCN(C(c3ccc(F)cc3)c3ccc(F)cc3)CC2)c(OC)c1OC [Comparative Example 1 (lomerizine), Lomerizine]
GI50 [1]: 2950 nM

Compound: COC(=O)C1=C(C)NC(C)=C(C(=O)OCCN2CCN(C(c3ccccc3)c3ccccc3)CC2)C1c1cccc([N+](=O)[O-])c1 (centres unmarked) [Comparative Example 1 (manidipine), Manidipine]
GI50 [1]: 2700 nM | GI50 [2]: ~9670 nM

Compound: CCC(COC(=O)c1cc(OC)c(OC)c(OC)c1)(c1ccccc1)N(C)C (centres unmarked) [Example 1, Trimebutine]
viability of A2780-SP cells (ovarian cancer stem cells), result in words [1]: reduced the viability | viability of A2780-SP cells (ovarian cancer stem cells), result in words ([1]; listed as trimebutine): excellent effect of inhibiting the survival of ovarian cancer stem cells | GI50 [1]: 401 nM | selectivity for cancer stem cells rather than cancer cells ([1]; A2780-SP versus A2780, FIGS. 1F and 1G compared with FIGS. 1A to 1E): excellent selectivity | amplitude of BKCa current (BKCa channel): remarkably suppressed | amplitude of Ca current (L-type Ca channel): remarkably suppressed | amplitude of Na current (Na channel): remarkably suppressed | expressions of ALDH, OCT4 and SOX2, the markers related to cancer stemness (ALDH, OCT4 and SOX2): reduced | degree of β-catenin S552 phosphorylation (β-catenin): reduced | translocation of β-catenin into the nucleus (β-catenin): reduced | tumor formation (A2780-SP xenograft): specifically inhibited tumor formation | change in body weight [3]: no change in body weight
